Results on two compounds are retold here after patent publication US20140303322A1, “ANTIMICROBIAL AND BACTERIOSTATIC-MODIFIED POLYMERS FOR CELLULOSE FIBRES” (priority 2012, published 2014).

Marks after values point to notes of the source that are not given here.

The test system of data set [1] is E. coli ATCC 11229. Briefly: Shaking flask method, antibiotics/CPβCD complexes on cellulose fibres. The note with it: CPβCD complex. It is filed as cell-based, Escherichia coli.
A short description of data set [2]: Water solubility of triclosan and butylparaben (UV spectrophotometer). The format is physicochemical. The following applies: FIGS. 13 and 14; complex with CPβCD. The text has this:
The triclosan/CPβCD or butylparaben/CPβCD complex can be prepared by adopting the procedures described by Arias et al. (1997)^7 and Mura et al. (2002)^8. […] The solubility of triclosan or butylparaben can be determined by a UV spectrophotometer at wavelength of 282 nm and 256 nm, respectively.

Setting [3] is: concentration 0.03 % wt, contacting time 1 hour.
Setting [4] is: concentration 0.06 % wt, contacting time 1 hour.
Where [5] appears, read: concentration 0.125 % wt, contacting time 1 hour.
Where [6] appears, read: concentration 0.25 % wt, contacting time 1 hour.
Where [7] appears, read: concentration 0.5 % wt, contacting time 1 hour.
Setting [8] is: concentration 1 % wt, contacting time 1 hour.
[9] abbreviates: contacting time 0.5 min, antibiotic 0.5% wt based on cellulose fibres.
Where [10] appears, read: contacting time 1 min, antibiotic 0.5% wt based on cellulose fibres.
[11] abbreviates: contacting time 3 min, antibiotic 0.5% wt based on cellulose fibres.
[12] abbreviates: contacting time 10 min, antibiotic 0.5% wt based on cellulose fibres.
[13] abbreviates: contacting time 30 min, antibiotic 0.5% wt based on cellulose fibres.
[14] abbreviates: contacting time 60 min, antibiotic 0.5% wt based on cellulose fibres.

With `Oc1cc(Cl)ccc1Oc1ccc(Cl)cc1Cl` [Triclosan], the “Growth inhibition (%)” value in data set [1] (setting [3]) stood at 23.2%; in data set [1] (setting [4]) it was 50.2%; in data set [1] (setting [5]), 68.1%; in data set [1] (setting [6]), 87.1%; in data set [1] (setting [7]), 99.7%; in data set [1] (setting [8]), 100%. The “Growth inhibition (%)” value in data set [1] (setting [9]) is on record as 24.6%; in data set [1] (setting [10]), 37.7%; in data set [1] (setting [11]) it was 61.0%; in data set [1] (setting [12]), 95.8%; in data set [1] (setting [13]), 99.6%; in data set [1] (setting [14]) it was 100%. In addition, the “water solubility as a function of CPβCD content” value in data set [2] is “linear increased with the CPβCD content”.

Regarding `CCCCOC(=O)c1ccc(O)cc1` [Butylparaben, butylparaben], the “Growth inhibition (%)” value in data set [1] (setting [3]) was 4.54%; in data set [1] (setting [4]), 9.09%; in data set [1] (setting [5]) it was 54.6%; in data set [1] (setting [6]), 81.8%; in data set [1] (setting [7]), 99.9%; in data set [1] (setting [8]) it was 100%. In addition, the “Growth inhibition (%)” value in data set [1] (setting [9]) is on record as 50.0%; in data set [1] (setting [10]), 61.9%; in data set [1] (setting [11]), 95.8%; in data set [1] (setting [12]), 100**** %; in data set [1] (setting [13]), 100%; in data set [1] (setting [14]), 100%. Besides, the “water solubility as a function of CPβCD content” value in data set [2] was “linear increased with the CPβCD content”.
